The NIST ThermoML archive (doi:10.1021/je500792x)
± gives the expanded uncertainty stated by the source.

Assay: xn = mol fraction of the nth substance listed
Conditions: Gas, Buoyancy - hydrostatic balance with magnetic suspension - two sinkers

C [methane] + CCC
Conditions | mass density [kg/m3]
248.15 K, 120.09 kPa, x1 = 0.5069 | 1.7641 ± 0.003
248.15 K, 129.19 kPa, x1 = 0.2658 | 2.3527 ± 0.0032
248.15 K, 129.2 kPa, x1 = 0.2658 | 2.353 ± 0.0032
248.15 K, 141.7 kPa, x1 = 0.2658 | 2.5862 ± 0.0032
248.15 K, 159.47 kPa, x1 = 0.2658 | 2.9223 ± 0.0034
248.15 K, 183.4 kPa, x1 = 0.5069 | 2.7164 ± 0.0034
248.15 K, 184.56 kPa, x1 = 0.2658 | 3.3988 ± 0.0034
248.15 K, 188.16 kPa, x1 = 0.2658 | 3.4688 ± 0.0034
248.15 K, 217.78 kPa, x1 = 0.2658 | 4.0405 ± 0.0035
248.15 K, 220.8 kPa, x1 = 0.2658 | 4.0982 ± 0.0035
248.15 K, 244.4 kPa, x1 = 0.5069 | 3.6498 ± 0.0038
248.15 K, 251.13 kPa, x1 = 0.2658 | 4.6926 ± 0.0036
248.15 K, 251.49 kPa, x1 = 0.2658 | 4.7012 ± 0.0036
248.15 K, 271.99 kPa, x1 = 0.2658 | 5.106 ± 0.0036
248.15 K, 275.99 kPa, x1 = 0.2658 | 5.1859 ± 0.0037
248.15 K, 303.31 kPa, x1 = 0.5069 | 4.5661 ± 0.0039
248.15 K, 360.5 kPa, x1 = 0.5069 | 5.4702 ± 0.0043
248.15 K, 424.87 kPa, x1 = 0.5069 | 6.5055 ± 0.0045
248.16 K, 96.6 kPa, x1 = 0.2658 | 1.7469 ± 0.0031
248.16 K, 390.04 kPa, x1 = 0.7498 | 4.4826 ± 0.0035
248.16 K, 500.33 kPa, x1 = 0.7498 | 5.7986 ± 0.0037
248.16 K, 580.7 kPa, x1 = 0.7498 | 6.7717 ± 0.0038
248.16 K, 685.07 kPa, x1 = 0.7498 | 8.0551 ± 0.0039
248.16 K, 786.24 kPa, x1 = 0.7498 | 9.3205 ± 0.0041
248.16 K, 835.6 kPa, x1 = 0.7498 | 9.9461 ± 0.0042
248.17 K, 276.07 kPa, x1 = 0.7498 | 3.1456 ± 0.0033
273.15 K, 123.94 kPa, x1 = 0.2658 | 2.0343 ± 0.0031
273.15 K, 149.35 kPa, x1 = 0.2658 | 2.4607 ± 0.0032
273.15 K, 167.49 kPa, x1 = 0.2658 | 2.7678 ± 0.0032
273.15 K, 198.96 kPa, x1 = 0.2658 | 3.3031 ± 0.0033
273.15 K, 218.04 kPa, x1 = 0.5069 | 2.9261 ± 0.0032
273.15 K, 242.18 kPa, x1 = 0.2658 | 4.0482 ± 0.0035
273.15 K, 247.99 kPa, x1 = 0.2658 | 4.1483 ± 0.0035
273.15 K, 258.4 kPa, x1 = 0.5069 | 3.4829 ± 0.0036
273.15 K, 262.29 kPa, x1 = 0.5069 | 3.5352 ± 0.0034
273.15 K, 269.26 kPa, x1 = 0.5069 | 3.6315 ± 0.0035
273.15 K, 277.28 kPa, x1 = 0.5069 | 3.7427 ± 0.0039
273.15 K, 300.07 kPa, x1 = 0.2658 | 5.0612 ± 0.0036
273.15 K, 309 kPa, x1 = 0.5069 | 4.1836 ± 0.0038
273.15 K, 321.34 kPa, x1 = 0.5069 | 4.3576 ± 0.0037
273.15 K, 323.08 kPa, x1 = 0.5069 | 4.3804 ± 0.004
273.15 K, 340.35 kPa, x1 = 0.5069 | 4.6226 ± 0.0041
273.15 K, 344.34 kPa, x1 = 0.2658 | 5.85 ± 0.0037
273.15 K, 347.43 kPa, x1 = 0.2658 | 5.905 ± 0.0037
273.15 K, 396.65 kPa, x1 = 0.2658 | 6.7965 ± 0.0039
273.15 K, 401.7 kPa, x1 = 0.2658 | 6.8905 ± 0.0039
273.15 K, 402.73 kPa, x1 = 0.5069 | 5.504 ± 0.0043
273.15 K, 406.45 kPa, x1 = 0.2658 | 6.9764 ± 0.0039
273.15 K, 409.05 kPa, x1 = 0.5069 | 5.5939 ± 0.0043
273.15 K, 415.33 kPa, x1 = 0.5069 | 5.6832 ± 0.0044
273.15 K, 430.8 kPa, x1 = 0.2658 | 7.425 ± 0.0041
273.15 K, 441.3 kPa, x1 = 0.5069 | 6.0553 ± 0.0047
273.15 K, 445.43 kPa, x1 = 0.2658 | 7.6956 ± 0.0041
273.15 K, 453.52 kPa, x1 = 0.5069 | 6.2301 ± 0.0047
273.15 K, 486.1 kPa, x1 = 0.2658 | 8.4581 ± 0.0042
273.15 K, 491.06 kPa, x1 = 0.5069 | 6.7718 ± 0.0049
273.15 K, 491.24 kPa, x1 = 0.2658 | 8.5547 ± 0.0042
273.15 K, 491.73 kPa, x1 = 0.2658 | 8.5641 ± 0.0042
273.15 K, 492.46 kPa, x1 = 0.7498 | 5.1329 ± 0.0036
273.15 K, 497.16 kPa, x1 = 0.5069 | 6.8601 ± 0.0049
273.15 K, 500.89 kPa, x1 = 0.7498 | 5.2229 ± 0.0037
273.15 K, 503.23 kPa, x1 = 0.5069 | 6.9481 ± 0.0049
273.15 K, 506.93 kPa, x1 = 0.5069 | 7.0019 ± 0.0049
273.15 K, 537.7 kPa, x1 = 0.2658 | 9.4417 ± 0.0045
273.15 K, 542.15 kPa, x1 = 0.2658 | 9.5274 ± 0.0045
273.15 K, 556.33 kPa, x1 = 0.5069 | 7.7247 ± 0.0053
273.15 K, 562.21 kPa, x1 = 0.2658 | 9.9157 ± 0.0046
273.15 K, 568.57 kPa, x1 = 0.2658 | 10.0392 ± 0.0046
273.15 K, 598.52 kPa, x1 = 0.2658 | 10.627 ± 0.0048
273.15 K, 607.75 kPa, x1 = 0.5069 | 8.4837 ± 0.0055
273.15 K, 608.84 kPa, x1 = 0.2658 | 10.8307 ± 0.0048
273.15 K, 612.13 kPa, x1 = 0.5069 | 8.5493 ± 0.0055
273.15 K, 615.59 kPa, x1 = 0.2658 | 10.9644 ± 0.0048
273.15 K, 619.26 kPa, x1 = 0.5069 | 8.6551 ± 0.0055
273.15 K, 625.49 kPa, x1 = 0.5069 | 8.7476 ± 0.0062
273.15 K, 631.66 kPa, x1 = 0.5069 | 8.8402 ± 0.0059
273.15 K, 635.08 kPa, x1 = 0.2658 | 11.3537 ± 0.0049
273.15 K, 652.39 kPa, x1 = 0.2658 | 11.7011 ± 0.0049
273.15 K, 659.32 kPa, x1 = 0.2658 | 11.8408 ± 0.005
273.15 K, 701.31 kPa, x1 = 0.5069 | 9.8889 ± 0.0061
273.15 K, 705.87 kPa, x1 = 0.5069 | 9.9584 ± 0.0068
273.15 K, 711.71 kPa, x1 = 0.5069 | 10.0475 ± 0.0061
273.15 K, 781.92 kPa, x1 = 0.5069 | 11.1241 ± 0.007
273.15 K, 803.19 kPa, x1 = 0.5069 | 11.4547 ± 0.0086
273.15 K, 829.52 kPa, x1 = 0.5069 | 11.8643 ± 0.008
273.15 K, 888.98 kPa, x1 = 0.5069 | 12.8024 ± 0.008
273.15 K, 899.81 kPa, x1 = 0.7498 | 9.5966 ± 0.0051
273.15 K, 907.76 kPa, x1 = 0.5069 | 13.1006 ± 0.008
273.15 K, 930.25 kPa, x1 = 0.5069 | 13.4618 ± 0.0079
273.15 K, 971.91 kPa, x1 = 0.5069 | 14.1337 ± 0.0092
273.15 K, 986.2 kPa, x1 = 0.5069 | 14.3651 ± 0.009
273.15 K, 1000.4 kPa, x1 = 0.7498 | 10.7338 ± 0.0056
273.15 K, 1009.5 kPa, x1 = 0.5069 | 14.7469 ± 0.0091
273.15 K, 1015 kPa, x1 = 0.7498 | 10.9019 ± 0.0056
273.15 K, 1015.5 kPa, x1 = 0.5069 | 14.8424 ± 0.0091
273.15 K, 1041.7 kPa, x1 = 0.5069 | 15.2749 ± 0.0091
273.15 K, 1299.2 kPa, x1 = 0.7498 | 14.1894 ± 0.0059
273.15 K, 1500.9 kPa, x1 = 0.7498 | 16.5996 ± 0.0063
273.15 K, 1510.9 kPa, x1 = 0.7498 | 16.7231 ± 0.0063
273.15 K, 1700.4 kPa, x1 = 0.7498 | 19.0432 ± 0.0066
273.15 K, 1998.9 kPa, x1 = 0.7498 | 22.8321 ± 0.0072
273.15 K, 1999.7 kPa, x1 = 0.7498 | 22.8429 ± 0.0072
273.15 K, 2002 kPa, x1 = 0.7498 | 22.875 ± 0.0072
273.15 K, 2303.6 kPa, x1 = 0.7498 | 26.8673 ± 0.0099
293.14 K, 149.9 kPa, x1 = 0.2658 | 2.2913 ± 0.0033
293.14 K, 469.3 kPa, x1 = 0.2658 | 7.4652 ± 0.0038
293.14 K, 568.75 kPa, x1 = 0.2658 | 9.168 ± 0.0044
293.14 K, 1056.3 kPa, x1 = 0.2658 | 18.3225 ± 0.0065
293.14 K, 1105.7 kPa, x1 = 0.2658 | 19.3404 ± 0.0066
293.14 K, 1807.2 kPa, x1 = 0.5069 | 25.9503 ± 0.014
293.15 K, 258.04 kPa, x1 = 0.2658 | 3.9961 ± 0.0035
293.15 K, 355.08 kPa, x1 = 0.2658 | 5.5657 ± 0.0037
293.15 K, 393.88 kPa, x1 = 0.5069 | 4.9714 ± 0.0043
293.15 K, 613.82 kPa, x1 = 0.5069 | 7.8849 ± 0.0052
293.15 K, 655.65 kPa, x1 = 0.2658 | 10.6963 ± 0.0046
293.15 K, 803.74 kPa, x1 = 0.5069 | 10.489 ± 0.0069
293.15 K, 857.4 kPa, x1 = 0.2658 | 14.4071 ± 0.0054
293.15 K, 955.25 kPa, x1 = 0.2658 | 16.2977 ± 0.0064
293.15 K, 1006.2 kPa, x1 = 0.5069 | 13.3634 ± 0.0087
